How the values were obtained:
[1] = system: Streptococcus species; assay: Cidal activity of 50 ppm ClO2; type: cell-based; details: within one minute
Description: (§1) This invention provides a quick-acting, broad-spectrum antimicrobial, that is not absorbed systemically because it is rapidly eliminated or degraded. The inventive compositions have the requisite, extended range of antimicrobial action, rapidity of kill and degradability for this application. […] ClO2 reacts with oxidizable bonds of these organisms and other organic matter and, as a result, is reduced to lower oxidation states: initially chlorite and ultimately chloride. The latter is present at high levels in the body (ca. 0.5% of cellular fluids), so that the small amount formed by ClO2 degradation (in the parts per million range) would disappear into that pool. Compatability of these disinfecting peritoneal flush solutions is also appropriate, since the ClO2 is generated or dissolved in solutions which have osmotic pressures that are suitably isotonic with cellular fluids.

[2] = system: Bacteroides species; assay: Cidal activity of 50 ppm ClO2; type: cell-based; details: within one minute
Description: as §1

[3] = system: Escherichia coli and other coliforms; assay: Cidal activity of 50 ppm ClO2; type: cell-based; details: within one minute
Description: as §1

[4] = system: Pseudomonas aeruginosa; assay: Cidal activity of 50 ppm ClO2; type: cell-based; details: within one minute
Description: as §1

[5] = system: Staphylococcus species; assay: Cidal activity of 50 ppm ClO2; type: cell-based; details: within one minute
Description: as §1

[6] = system: Klebsiella pneumoniae; assay: Cidal activity of 50 ppm ClO2; type: cell-based; details: within one minute
Description: as §1

[7] = system: Staphylococcus epidermidis biofilms; assay: Sterilization of S. epidermidis biofilms, minimal exposure time at 22° C. (supravital dye, confirmed by culture); type: cell-based; details: 22° C.
Description: This example compares and contrasts the cidal effectiveness of compositions of the invention with other disinfectants and antibiotics against Staphylococcus epidermidis biofilms, which are frequently observed on the surface of C.A.P.D. peritoneal catheters even in the absence of peritonitis or exit site infections.
A strain of S. epidermidis with characteristic abundant slime production, and derived from a human source, is used to prepare the biofilms. The isolate is fully sensitive in the fluid phase to all commonly used antibiotics as assayed using routine test methods. Aliquots of the bacteria are frozen at -70° C. in 10% glycerol broth or propagated on 5% defibrinated horse blood agar. Standardized biofilms are formed on soda glass microscope slides or slides coated with Silastic® (the basic material of indwelling catheters; see Cecil's, cited above, on page 542), placed in Petri dishes containing 20 ml of tryptone soya broth (Oxoid Ltd., England), seeded with 10^4 cfu S. epidermidis and incubated for 18 hours at 37° C. Reproducible uniform and confluent S. epidermidis biofilms of minimal density are formed.
(§2) Antibiotic activity against S. epidermidis biofilms are determined using a supravital dye which acts as an electron acceptor in coupled oxidative systems in biofilm bacteria. The method allows the bacteria to be examined undisturbed within the biofilm matrix in situ. Briefly stated, the biofilms are exposed to antibiotic solutions and incubated at […] for varying periods of time. Positive (viable, 1% peptone water) and negative (sterilized, 4% formol-peptone) controls are included in all experiments. After a designated exposure at 22° C. for varying periods of time between 15 seconds to 6 hours, the biofilms are rinsed twice in sterile water and allowed to drain. They are then placed in a flat agar medium incorporating substantive dyes and incubated at 37° C. for 4 hours, then 24 hours. Viability is assessed visually by a change in dye color and confirmed after 24 hours by mechanically scraping and subsequently culturing the biofilms. Sterilization is indicated by the absence of color changes and confirmed by culture of both intact and mechanically fragmented biofilms. Inhibition of growth is indicated by a lack of color change after a 4-hour incubation and confirmed by a positive color change by 24 hours.

[8] = system: mammalian tissue; assay: Tolerance by mammalian tissue (eye irrigant, udder infusion, uterine douche); type: in vivo, rabbits, cow, mares; details: 50 ppm
Description: The materials in the table which are as effective as the 50 ppm ClO2 solution are ones that would be considered to be too irritating and/or corrosive for use as an irrigant in a peritoneal cavity.

[9] = system: S. epidermidis biofilms; assay: Sterilization of S. epidermidis biofilms by diluted 50 ppm ClO2 or formol saline; type: cell-based, Staphylococcus epidermidis; details: for minimal time of exposure to effect sterilization: 22° C.
Experimental: as §2
This conclusion is underscored in studies that assess the efficacy of methods employed using compositions of the invention in combination with an infusate used in C A P D and C C P D practice, Inpersol® Abbott Laboratories, Montreal, Canada, which contains 4.25% dextrose and has a pH of 5.2. A 50 ppm ClO2 solution is diluted from 1:2 to 1:10 with normal saline (denoted below as NS), Inpersol® peritoneal dialyzate (denoted as PD), and peptone-saline (a standardized protein digest obtained from Oxoid, denoted as PS). Four percent formol saline, a known potent environmental disinfectant of considerable toxicity, is used as a reference. The results are expressed as the minimal time of exposure at 22° C. to effect sterilization of S. epidermidis biofilms: […]

Question: How did the kill [1] turn out when `[O][Cl+][O-]` [ClO2, chlorine dioxide] was run?
Answer: The kill was 6 logs/ml.

Question: And the kill [2]?
Answer: The kill was 6 logs/ml.

Question: And the kill [3]?
Answer: The kill was 6 logs/ml.

Question: And the kill [4]?
Answer: The kill was 6 logs/ml.

Question: What about the kill [5] of the same compound?
Answer: The kill was 6 logs/ml.

Question: What about the kill [6] of the same compound?
Answer: Its kill is 6 logs/ml.

Question: What about the “Exposure Time (22° C.) for Film Sterilization” value [7] of the same compound?
Answer: Its value is 5 s.

Question: And the “tolerance by mammalian tissue” value [8]?
Answer: The value was “well tolerated by mammalian tissue”.

Question: And the “minimal time of exposure to effect sterilization” value (“minimal time of exposure” below) ([9]; dilution 1/2 in normal saline (NS))?
Answer: Its value is 0.25 min.

Question: And the “minimal time of exposure” value ([9]; dilution 1/2 in peptone-saline (PS))?
Answer: Its value is 1 min.

Question: And the “minimal time of exposure” value ([9]; dilution 1/2 in peritoneal dialyzate (PD))?
Answer: Its value is 0.083 min.

Question: And the “minimal time of exposure” value ([9]; dilution 1/3 in normal saline (NS))?
Answer: Its value is 0.5 min.

Question: And the “minimal time of exposure” value ([9]; dilution 1/3 in peptone-saline (PS))?
Answer: Its value is 3 min.

Question: And the “minimal time of exposure” value ([9]; dilution 1/3 in peritoneal dialyzate (PD))?
Answer: The value was 1 min.

Question: And the “minimal time of exposure” value ([9]; dilution 1/5 in normal saline (NS))?
Answer: Its value is 5 min.

Question: What about the “minimal time of exposure” value ([9]; dilution 1/5 in peptone-saline (PS)) of the same compound?
Answer: Its value is 60 min.

Question: What about the “minimal time of exposure” value ([9]; dilution 1/5 in peritoneal dialyzate (PD)) of the same compound?
Answer: The value was 5 min.

Question: And the “minimal time of exposure” value ([9]; dilution 1/7 in normal saline (NS))?
Answer: The value was 15 min.

Question: What about the “minimal time of exposure” value ([9]; dilution 1/7 in peptone-saline (PS)) of the same compound?
Answer: Its value is 240 min.

Question: And the “minimal time of exposure” value ([9]; dilution 1/7 in peritoneal dialyzate (PD))?
Answer: The value was 7 min.

Question: What about the “minimal time of exposure” value ([9]; dilution 1/10 in normal saline (NS)) of the same compound?
Answer: The value was 60 min.

Question: What about the “minimal time of exposure” value ([9]; dilution 1/10 in peptone-saline (PS)) of the same compound?
Answer: Its value is 1440 min.

Question: And the “minimal time of exposure” value ([9]; dilution 1/10 in peritoneal dialyzate (PD))?
Answer: Its value is 10 min.

Question: And the “effect of diluting with peptone solutions on sterilizing activity” value ([9]; diluted with peptone solutions)?
Answer: Its value is “inhibitory effect on the sterilizing activity”.

Question: What about the “effect of peritoneal dialysis solution on antimicrobial activity” value ([9]; diluted with peritoneal dialysis solution) of the same compound?
Answer: The value was “markedly enhances antimicrobial activity”.

— patent US5622725A, “Wound disinfection and repair” (Alcide Corporation, priority 1996, dated 1997)
